Measured values taken from US20110269700A1, “GLUCOSIDE DERIVATIVES AND USES THEREOF” (NOVARTIS AG, priority 2008, published 2011).

Legend:
[1] = molecular target: T1, human sodium glucose cotransporter 2 (Homo sapiens, UniProt P31639); experiment: SGLT2 assay: 14C-AMG uptake in CHO-hSGLT2 or HEK-hSGLT2 cells; type: cell-based; conditions: n = 1-4
T1 construct: expressed in transfected cells; host or cells: CHO-K1 (ATCC CCL-61) or HEK293 (ATCC CRL-1573), stably transfected with pZeoSV
T1 sequence (P31639 1-672): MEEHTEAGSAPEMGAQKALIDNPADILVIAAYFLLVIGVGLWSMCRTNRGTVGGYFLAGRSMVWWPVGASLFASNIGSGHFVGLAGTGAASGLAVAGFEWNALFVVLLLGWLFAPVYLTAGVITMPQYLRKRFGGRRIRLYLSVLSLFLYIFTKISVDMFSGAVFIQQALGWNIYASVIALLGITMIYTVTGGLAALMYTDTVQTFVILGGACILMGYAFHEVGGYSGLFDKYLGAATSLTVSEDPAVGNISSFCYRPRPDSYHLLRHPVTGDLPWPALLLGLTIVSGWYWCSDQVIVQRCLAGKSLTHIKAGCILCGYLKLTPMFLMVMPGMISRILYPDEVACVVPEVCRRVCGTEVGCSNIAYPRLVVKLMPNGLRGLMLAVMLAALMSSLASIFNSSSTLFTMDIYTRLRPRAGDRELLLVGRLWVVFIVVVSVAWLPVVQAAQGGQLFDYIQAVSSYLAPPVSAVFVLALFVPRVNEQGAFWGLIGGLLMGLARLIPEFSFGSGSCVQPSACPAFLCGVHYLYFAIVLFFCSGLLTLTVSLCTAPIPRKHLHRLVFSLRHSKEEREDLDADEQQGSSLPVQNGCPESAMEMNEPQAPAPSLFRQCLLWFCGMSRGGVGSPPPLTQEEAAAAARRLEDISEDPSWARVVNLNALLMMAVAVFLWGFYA
Experimental: These cell lines transport ^14C-labeled alpha-methyl-glucopyranoside (^14C-AMG, Amersham) into the interior of the cell in sodium-dependent manner.
The SGLT-2 assay is carried out as follows: CHO-hSGLT2 cells are cultivated in Ham's F12 Medium (BioWhittaker) with 10% fetal calf serum and 250 μg/mL zeocin (Invitrogen), and HEK293-hSGLT2 cells are cultivated in DMEM medium with 10% fetal calf serum and 250 μg/mL zeocin (Invitrogen). The cells are detached from the culture flasks by washing twice with PBS and subsequently treating with trypsin/EDTA. After the addition of cell culture medium the cells are centrifuged, resuspended in culture medium and counted in a Casy cell counter. Then 40,000 cells per well are seeded into a white, 96-well plate coated with poly-D-lysine and incubated overnight at 37° C., 5% CO2. The cells are washed twice with 250 μl of assay buffer (Hanks Balanced Salt Solution, 137 mM NaCl, 5.4 mM KCl, 2.8 mM CaCl2, 1.2 mM MgSO4 and 10 mM HEPES (pH 7.4), 50 μg/mL of gentamycin). 250 μl of assay buffer and 5 μl of test compound are then added to each well and the plate is incubated for a further 15 minutes in the incubator. 5 μl of 10% DMSO are used as the negative control. The reaction is started by adding 5 μl of 14 C-AMG (0.05 μCi) to each well. After 2 hours' incubation at 37° C., 5% CO2, the cells are washed again with 250 μl of PBS ([…]) and then lysed by the addition of 25 μl of 0.1 N NaOH (5 min. at 37° C.). 200 μl of MicroScint20 (Packard) are added to each well and incubation is continued for a further 20 min at 37° C. After this incubation the radioactivity of the 14 C-AMG absorbed is measured in a Topcount (Packard) using a 14 C scintillation program.

human SGLT1 = molecular target: T2, human SGLT1 (Homo sapiens, UniProt P13866); experiment: SGLT1 assay: 14C-AMG uptake in CHO-K1 or HEK293 cells expressing hSGLT1; type: cell-based; conditions: n = 1-4
T2 construct: expressed in transfected cells; host or cells: CHO-K1 or HEK293
T2 sequence (P13866 1-664): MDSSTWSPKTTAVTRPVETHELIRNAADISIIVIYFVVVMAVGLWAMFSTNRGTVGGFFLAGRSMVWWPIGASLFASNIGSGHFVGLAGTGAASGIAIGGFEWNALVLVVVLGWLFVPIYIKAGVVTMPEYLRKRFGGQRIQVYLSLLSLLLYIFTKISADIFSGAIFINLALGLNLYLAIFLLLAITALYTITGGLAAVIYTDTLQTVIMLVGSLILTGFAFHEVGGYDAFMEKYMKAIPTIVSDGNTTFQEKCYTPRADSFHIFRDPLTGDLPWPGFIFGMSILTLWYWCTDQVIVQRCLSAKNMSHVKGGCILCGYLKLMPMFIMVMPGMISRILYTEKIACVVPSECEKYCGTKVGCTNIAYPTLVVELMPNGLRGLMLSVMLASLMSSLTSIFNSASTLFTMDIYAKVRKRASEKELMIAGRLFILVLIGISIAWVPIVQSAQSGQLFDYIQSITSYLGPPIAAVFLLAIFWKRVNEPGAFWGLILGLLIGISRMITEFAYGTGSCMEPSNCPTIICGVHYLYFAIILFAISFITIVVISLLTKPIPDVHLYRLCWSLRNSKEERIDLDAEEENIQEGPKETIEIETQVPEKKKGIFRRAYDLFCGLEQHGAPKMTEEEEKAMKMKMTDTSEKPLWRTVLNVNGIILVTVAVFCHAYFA
Experimental: To determine human SGLT1 inhibitory activity, an analogous test was set up in which the cDNA for hSGLTI (Genbank Ace. No. NM000343) instead of hSGLT2 cDNA is expressed in CHO-K1 or HEK293 cells. The uptake assay buffer in the case of the hSGLT1 assay contains 10 mM HEPES, 5 mM Tris, 140 mM NaCl, 2 mM KCl, 1 mM CaCl2, and 1 mM MgCl2, pH 7.4 containing 0.5 mM of α-methyl-D-glucopyranoside (AMG), 10 μM of [^14C]-α-methyl-D-glucopyranoside and different inhibitor concentrations.

SMILES	IC50 [1] [nM]	IC50 (human SGLT1) [nM]
CCOc1ccc(Cc2cc([C@@H]3O[C@H](CN(C)c4cccc(C(=O)N5CCCC5)c4)[C@@H](O)[C@H](O)[C@H]3O)ccc2Cl)cc1 [Example 37, [3-({(2R,3S,4R,5R,6S)-6-[4-Chloro-3-(4-ethoxy-benzyl)-phenyl]-3,4,5-trihydroxy-tetrahydro-pyran-2-ylmethyl}-methyl-amino)-phenyl]-pyrrolidin-1-yl-methanone]	10	280
CCOc1ccc(Cc2cc([C@@H]3O[C@H](CNc4cccc(NC(C)=O)c4)[C@@H](O)[C@H](O)[C@H]3O)ccc2Cl)cc1 [Example 34, N-[3-({(2R,3S,4R,5R,6S)-6-[4-Chloro-3-(4-ethoxy-benzyl)-phenyl]-3,4,5-trihydroxy-tetrahydro-pyran-2-ylmethyl}-amino)-phenyl]-acetamide]	23	1500

The remaining lines, values ahead:

IC50 [1] [nM]	IC50 (human SGLT1) [nM]	SMILES
94	> 10000	CCOc1ccc(Cc2cc([C@@H]3O[C@H](Cn4nncc4CO)[C@@H](O)[C@H](O)[C@H]3O)ccc2Cl)cc1 [Example 9, (2S, 3R, 4R, 5S, 6R)-2-[4-Chloro-3-(4-ethoxy-benzyl)-phenyl]-6-(5-hydroxymethyl-[1,2,3]triazol-1-ylmethyl)-tetrahydro-pyran-3,4,5-triol]
50	32000	CCOc1ccc(Cc2cc([C@@H]3O[C@H](Cn4cc(CO)nn4)[C@@H](O)[C@H](O)[C@H]3O)ccc2Cl)cc1 [Example 10, (2S, 3R, 4R, 5S, 6R)-2-[4-Chloro-3-(4-ethoxy-benzyl)-phenyl]-6-(4-hydroxymethyl-[1,2,3]triazol-1-ylmethyl)-tetrahydro-pyran-3,4,5-triol]
81	–	CCOc1ccc(Cc2cc([C@@H]3O[C@H](Cn4cc(C(N)=O)nn4)[C@@H](O)[C@H](O)[C@H]3O)ccc2Cl)cc1 [Example 12, 1-{(2R,3S,4R,5R,6S)-6-[4-Chloro-3-(4-ethoxy-benzyl)-phenyl]-3,4,5-trihydroxy-tetrahydro-pyran-2-ylmethyl}-1H-[1,2,3]triazole-4-carboxylic acid amide]
